Source: PubChem BioAssay (NCI)
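96-well plates; 48 h exposure; 5 concentrations. Endpoints by linear interpolation between flanking doses. Not reached: highest tested concentration assigned. Abbreviation: GI50, concentration required for 50% inhibition of growth. TGI denotes the concentration required for complete inhibition of growth.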

Legend:
Assay in all cases: NCI tumour cell line growth inhibition, 48 h
[1] = test system: T-47D breast
[2] = test system: M14 melanoma
[3] = test system: SF-539 CNS
[4] = test system: NCI-H226 lung
[5] = test system: BT-549 breast
[6] = test system: A498 renal
[7] = test system: RXF 393 renal
[8] = test system: RPMI-8226 leukemia
[9] = test system: UACC-62 melanoma
[10] = test system: HOP-92 NSCLC
[11] = test system: SK-MEL-28 melanoma
[12] = test system: UACC-257 melanoma
[13] = test system: MDA-MB-231 breast
[14] = test system: SF-268 CNS
[15] = test system: CAKI-1 renal
[16] = test system: LOX IMVI melanoma
[17] = test system: ACHN renal
[18] = test system: UO-31 renal
[19] = test system: NCI-H460 lung
[20] = test system: KM12 colon
[21] = test system: NCI-H23 lung
[22] = test system: SW-620 colon
[23] = test system: SN12C renal
[24] = test system: SK-MEL-2 melanoma
[25] = test system: SK-MEL-5 melanoma
[26] = test system: 786-0 renal
[27] = test system: HT29 colon
[28] = test system: COLO 205 colon
[29] = test system: HL-60(TB) leukemia
[30] = test system: HOP-62 NSCLC
[31] = test system: HS 578T breast
[32] = test system: SR leukemia
[33] = test system: MOLT-4 leukemia
[34] = test system: HCT-116 colon
[35] = test system: NCI-H522 lung
[36] = test system: IGROV1 ovarian
[37] = test system: OVCAR-4 ovarian
[38] = test system: HCT-15 colon
[39] = test system: OVCAR-5 ovarian
[40] = test system: SNB-75 CNS
[41] = test system: HCC-2998 colon
[42] = test system: PC-3 prostate
[43] = test system: OVCAR-8 ovarian
[44] = test system: MCF7 breast
[45] = test system: A549 NSCLC
[46] = test system: SK-OV-3 ovarian
[47] = test system: CCRF-CEM leukemia
[48] = test system: U251 CNS
[49] = test system: TK-10 renal
[50] = test system: MALME-3M melanoma
[51] = test system: SNB-19 CNS
[52] = test system: OVCAR-3 ovarian
[53] = test system: EKVX NSCLC
[54] = test system: DU-145 prostate

O=C1Nc2ccccc2/C1=C\c1c(-c2ccccc2)nc2ccccn12
GI50 [1]: 4.4 µM
TGI [1]: > 100 µM
GI50 [2]: 2.48 µM
TGI [2]: 7.8 µM
GI50 [3]: 3.96 µM
TGI [3]: 18.9 µM
GI50 [4]: 4.5 µM
TGI [4]: 57.8 µM
GI50 [5]: 3.97 µM
TGI [5]: 50.9 µM
GI50 [6]: 5.87 µM
TGI [6]: > 100 µM
GI50 [7]: 2.75 µM
TGI [7]: 12.1 µM
GI50 [8]: 2.67 µM
TGI [8]: 8.56 µM
GI50 [9]: 3.88 µM
TGI [9]: > 100 µM
GI50 [10]: 3.98 µM
TGI [10]: 50.4 µM
GI50 [11]: 5.53 µM
TGI [11]: > 100 µM
GI50 [12]: 8.96 µM
TGI [12]: > 100 µM
GI50 [13]: 7.29 µM
TGI [13]: > 100 µM
GI50 [14]: 5.23 µM
TGI [14]: > 100 µM
GI50 [15]: 2.7 µM
TGI [15]: > 100 µM
GI50 [16]: 4.34 µM
TGI [16]: > 100 µM
GI50 [17]: 4.45 µM
TGI [17]: > 100 µM
GI50 [18]: 1.95 µM
TGI [18]: > 100 µM
GI50 [19]: 3.24 µM
TGI [19]: 12.9 µM
GI50 [20]: 2.55 µM
TGI [20]: > 100 µM
GI50 [21]: 3.77 µM
TGI [21]: > 100 µM
GI50 [22]: 3.02 µM
TGI [22]: > 100 µM
GI50 [23]: 4.91 µM
TGI [23]: > 100 µM
GI50 [24]: 2.35 µM
TGI [24]: 6.97 µM
GI50 [25]: 2.83 µM
TGI [25]: > 100 µM
GI50 [26]: 5.98 µM
TGI [26]: 81.5 µM
GI50 [27]: 3.05 µM
TGI [27]: 13.9 µM
GI50 [28]: 2.21 µM
TGI [28]: 5.58 µM
GI50 [29]: 2.59 µM
TGI [29]: 6.47 µM
GI50 [30]: 2.7 µM
TGI [30]: 15.5 µM
GI50 [31]: 9.31 µM
TGI [31]: > 100 µM
GI50 [32]: 0.498 µM
TGI [32]: > 100 µM
GI50 [33]: 4.2 µM
TGI [33]: > 100 µM
GI50 [34]: 3.61 µM
TGI [34]: 47 µM
GI50 [35]: 1.83 µM
TGI [35]: 7.65 µM
GI50 [36]: 2.59 µM
TGI [36]: 20.2 µM
GI50 [37]: 6.21 µM
TGI [37]: > 100 µM
GI50 [38]: 3.6 µM
TGI [38]: > 100 µM
GI50 [39]: 4.39 µM
TGI [39]: > 100 µM
GI50 [40]: 1.85 µM
TGI [40]: 6.1 µM
GI50 [41]: 4.56 µM
TGI [41]: 34.8 µM
GI50 [42]: 3.14 µM
TGI [42]: > 100 µM
GI50 [43]: 4.9 µM
TGI [43]: > 100 µM
GI50 [44]: 3.52 µM
TGI [44]: > 100 µM
GI50 [45]: 3.9 µM
TGI [45]: 60 µM
GI50 [46]: 1.95 µM
TGI [46]: 4.69 µM
GI50 [47]: 2.57 µM
TGI [47]: > 100 µM
GI50 [48]: 3.97 µM
TGI [48]: 21 µM
GI50 [49]: 5.05 µM
TGI [49]: 37.1 µM
GI50 [50]: 3.88 µM
TGI [50]: > 100 µM
GI50 [51]: 4.93 µM
TGI [51]: > 100 µM
GI50 [52]: 4.26 µM
TGI [52]: > 100 µM
GI50 [53]: 3.1 µM
TGI [53]: > 100 µM
GI50 [54]: 4.46 µM
TGI [54]: > 100 µM
